This is an account of results in PubChem BioAssay AID1996.

In brackets after ≈: the same amount, converted by molar mass.

For this data set the following is noted: buffer; pH 7.4; 200.0 µM.
For the compound `O=C(Nc1ccc(Nc2ccccc2)cc1)c1ccccc1F`, the solubility (kinetic) turned out to be 1.5 µg/mL (≈ 4.9 µM).
The compound `CC(=O)c1c(C)nc2ccc(C)cc2c1-c1ccccc1` displayed a solubility (kinetic) of 22.2 µg/mL (≈ 80.6 µM).
In the case of `CCOC(=O)N(C)S(=O)(=O)c1ccccc1[N+](=O)[O-]` it was 42.9 µg/mL (≈ 149 µM).
For the compound `COc1cc(/C=C/C(=O)O)cc(S(=O)(=O)NCC2CCCO2)c1OC` (configuration not stated), the solubility (kinetic) is 53.3 µg/mL (≈ 144 µM).
Under `Cc1ccc(CNC(=O)[C@@H](NC(=O)Cc2ccccc2)C(C)C)cc1` stands 7.4 µg/mL (≈ 21.9 µM); under `OCCN1CCOCCOc2ccccc2OCCOCC1`, above 46.7 µg/mL.
Under `Cc1ccc(S(=O)(=O)NCC(C)NC(=O)CN2CCOCC2)cc1` (configuration not stated) stands above 53.3 µg/mL; under `O=[N+]([O-])c1ccc(-c2csc(N3CCCCCC3)n2)cc1`, 0.6 µg/mL (≈ 1.98 µM).
With `CN=C1S/C(=C/c2cn(CC(=O)OC)c3ccccc23)C(=O)N1C`, the solubility (kinetic) was 4.1 µg/mL (≈ 11.9 µM).
Regarding `CCc1cccc(NC(=O)Cn2cc(C=O)c3ccccc32)c1`, the kinetic solubility came to 0.5 µg/mL (≈ 1.63 µM).
Under `Cn1cc(-c2ccccc2C(N)=O)c(=O)c2cc(Cl)ccc21` stands 46.3 µg/mL (≈ 148 µM); under `Cc1ccc(C(=O)NC(=S)N2CCCCCC2)cc1`, above 41.5 µg/mL.
Under `Cc1ccc(NC(=S)N2CCCC2)cc1Cl` stands 12.5 µg/mL (≈ 49.1 µM); under `Cc1ccnc(NS(=O)(=O)c2ccc(Cl)nc2)c1`, 26.9 µg/mL (≈ 94.8 µM); under `N#CCC(=O)Nc1ccc(C(=O)OCC(=O)NC2CCCc3ccccc32)cc1` (configuration not stated), 7.5 µg/mL (≈ 19.2 µM).
In the case of `CN(C)C(=O)NC1c2ccccc2-c2ccccc21` it was above 37.8 µg/mL; in that of `CC1(C)C2CCC1(C)C(OCCNCCOC(=O)Nc1ccccc1)C2` (configuration not stated), 10.2 µg/mL (≈ 28.3 µM).
Compound `O=C(c1ccccc1)c1ncc[nH]1` returned a kinetic solubility above 25.8 µg/mL.
Under `O=C(NCCC(=O)N1CCN(C(=O)c2ccco2)CC1)c1ccccc1Cl` stands above 58.5 µg/mL; under `Cc1cc(OCC(=O)N(C)Cc2ccccc2)cc(C)c1Cl`, 8.3 µg/mL (≈ 26.1 µM); under `CC(=O)c1cccc(N=Cc2c(O)c3ccccc3oc2=O)c1`, 11.2 µg/mL (≈ 36.4 µM).
Consider `CC(=O)c1c(C)[nH]c(C(=O)NCc2cccc(Cl)c2)c1C`, for which the solubility (kinetic) came to 18.9 µg/mL (≈ 62 µM). This solubility kinetic is about 1.7-fold higher than that of the compound before.
In the case of `CC1CCN(C(=O)COC(=O)c2nn(C)c(=O)c3ccccc23)CC1`, the kinetic solubility was above 51.5 µg/mL.
Under `Cc1ccc(C)c(OCCNc2ncccc2[N+](=O)[O-])c1` stands 0.3 µg/mL (≈ 1.04 µM).
Under `CSCCC(NC(=O)c1ccco1)C(=O)NCCc1ccc(Cl)cc1` (configuration not stated) stands 19.6 µg/mL (≈ 51.5 µM); under `CCC(=O)Nc1ccc(C2C(=O)c3ccccc3C2=O)cc1`, above 44 µg/mL.
Regarding `O=C(/C=C/c1ccc(-c2cccc([N+](=O)[O-])c2)o1)N1CCOCC1`, the kinetic solubility was found to be 3.9 µg/mL (≈ 11.9 µM).
In the case of `Cc1ccc(OCCNC(=O)c2cccc(C)c2)cc1` it was 29 µg/mL (≈ 108 µM); in that of `COc1ccccc1NC(=O)c1ccc2[nH]c(C)c(C)c2c1`, 2.1 µg/mL (≈ 7.13 µM).
In the case of `O=C(CC1C(=O)NCCN1C(=O)Nc1ccccc1)Nc1ccc(F)cc1` (configuration not stated) it was 52.2 µg/mL (≈ 141 µM).
Under `CN(Cc1nc(-c2cccs2)no1)CC1(N2CCOCC2)CCCCC1` stands 38.7 µg/mL (≈ 103 µM); under `N#Cc1ccc(OCc2noc(-c3ccsc3)n2)cc1`, 0.3 µg/mL (≈ 1.06 µM).
For the compound `Cl.O=C(NCCCN1CCOCC1)c1cc(S(=O)(=O)N2CCOCC2)ccc1Cl`, the kinetic solubility was above 70.3 µg/mL.
In the case of `Cn1c(C(=O)O)ccc1S(=O)(=O)N1CCCCCC1` it was above 43 µg/mL; in that of `COc1ccccc1NC(=O)CC1CCCC1`, above 35 µg/mL.
Under `CCN(C(=O)COc1nc(C)cc(C)c1C#N)c1ccccc1` stands 9.3 µg/mL (≈ 30.1 µM); under `CCc1cc(SC#N)cc(C)c1N`, 25.6 µg/mL (≈ 133 µM); under `O=C1CNC(=S)N1C1CCCCCC1`, 23.8 µg/mL (≈ 112 µM).
Under `Cc1cccc(NC(=O)c2ccc(NCCO)c([N+](=O)[O-])c2)n1` stands 3.4 µg/mL (≈ 10.7 µM); under `COc1ccc(-n2c(C)cc(C(=O)CN3CCC(C)CC3)c2C)cc1`, 46.3 µg/mL (≈ 136 µM); under `CCCN(CC1CC1)C(=O)COC(=O)c1ccc(C)cc1O`, above 45.8 µg/mL.
`CC(=O)c1ccccc1NC(=O)COC(=O)c1cc(C)oc1C` returned a kinetic solubility of 2.2 µg/mL (≈ 6.98 µM).
Under `O=C(CCc1ccccc1)Oc1ccccc1[N+](=O)[O-]` stands 5.2 µg/mL (≈ 19.2 µM); under `COc1cccc(C(=O)Nc2cccc3ccccc23)c1OC`, 14.5 µg/mL (≈ 47.2 µM).
Compound `COc1cccc(NC(=O)C2C3C=CC(C3)C2C(=O)O)c1` (configuration not stated) registered a kinetic solubility of 27.1 µg/mL (≈ 94.3 µM). Compared with the last compound, the solubility kinetic is about 1.9-fold higher.
For `Cc1cccc(OC(=O)c2cccnc2)c1`, the solubility (kinetic) came out at 12.6 µg/mL (≈ 59.1 µM).
Under `Nc1c(C(=O)N2CCOCC2)oc2ccccc12` stands above 36.9 µg/mL.
Under `Cl.Fc1ccc(CN2C3=NCCN3c3ccccc32)cc1` stands 43.2 µg/mL; under `CC(C)(C)C1CCCCC1NC(=O)c1ccncc1` (configuration not stated), 4.1 µg/mL (≈ 15.7 µM).
As to `Cc1sc2nc(SCCO)n(-c3ccccc3)c(=O)c2c1C`, the kinetic solubility was found to be 1.4 µg/mL (≈ 4.21 µM).
In the case of `COc1cc2ccccc2cc1C(=O)Nc1ccc(C)cn1` it was below 0.3 µg/mL; in that of `CC(=O)N(c1cccc(C)c1)S(=O)(=O)c1ccc(Cl)cc1`, 32.7 µg/mL (≈ 101 µM).

By kinetic solubility is commonly meant solubility judged after dilution from a stock solution rather than from solid.
